Tests used:
[1] = target: T1, recombinant human Meningioma Expressed Antigen 5 (MGEA5), also referred to as O-GlcNAcase (OGA) (Homo sapiens, UniProt O60502); experiment: OGA biochemical assay (inhibition of FM-GlcNAc hydrolysis, fluorescence); details: FM-GlcNAc substrate; for IC50: 6 h at room temperature, read-out: Enzymatic hOGA, pIC50 (converted); for Enzymatic Emax (%) / Emax: maximal effect; for Emax: read-out: Enzymatic Emax (%)
T1 construct: Full length OGA enzyme was purchased at OriGene (cat #TP322411); purchased OriGene TP322411
T1 sequence (O60502 1-916): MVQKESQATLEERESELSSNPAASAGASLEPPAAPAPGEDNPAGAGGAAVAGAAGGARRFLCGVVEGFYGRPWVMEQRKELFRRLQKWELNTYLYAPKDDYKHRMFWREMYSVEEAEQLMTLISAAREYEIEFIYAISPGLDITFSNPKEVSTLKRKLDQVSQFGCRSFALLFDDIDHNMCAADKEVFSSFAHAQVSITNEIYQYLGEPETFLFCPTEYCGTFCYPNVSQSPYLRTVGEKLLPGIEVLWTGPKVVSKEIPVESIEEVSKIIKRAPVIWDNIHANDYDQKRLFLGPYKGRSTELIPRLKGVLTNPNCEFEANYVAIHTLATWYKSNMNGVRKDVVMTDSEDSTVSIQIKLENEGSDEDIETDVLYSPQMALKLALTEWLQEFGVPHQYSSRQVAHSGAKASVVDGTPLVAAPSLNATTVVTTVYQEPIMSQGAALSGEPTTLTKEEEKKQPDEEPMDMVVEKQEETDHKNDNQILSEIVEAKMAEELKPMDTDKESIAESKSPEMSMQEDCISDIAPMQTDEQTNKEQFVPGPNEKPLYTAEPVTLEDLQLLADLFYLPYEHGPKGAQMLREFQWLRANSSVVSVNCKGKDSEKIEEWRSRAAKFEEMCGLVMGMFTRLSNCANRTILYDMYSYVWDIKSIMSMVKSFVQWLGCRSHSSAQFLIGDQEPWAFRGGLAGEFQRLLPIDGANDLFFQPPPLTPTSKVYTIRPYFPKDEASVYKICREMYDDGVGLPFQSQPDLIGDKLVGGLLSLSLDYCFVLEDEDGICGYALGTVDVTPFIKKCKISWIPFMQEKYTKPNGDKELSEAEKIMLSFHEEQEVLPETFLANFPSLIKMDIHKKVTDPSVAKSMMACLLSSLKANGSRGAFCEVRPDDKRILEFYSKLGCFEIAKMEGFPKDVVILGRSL
Outline: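 Full-length human OGA (2 nM) pre-incubated 60 min at room temperature with compound, then FM-GlcNAc (100 µM final) added in citrate/phosphate buffer pH 7.2 with 0.005% Tween-20; 6 h at room temperature, stopped with carbonate pH 11.0. Fluorescein read at 485/538 nm; IC50 and Hill coefficient from curve fit.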

OGA = target: T2, OGA (Homo sapiens, UniProt O60502); experiment: OGA cellular assay (ICC detection of O-GlcNAcylated proteins in HEK293 cells inducible for P301L mutant human Tau); assay type: cell-based; details: for EC50 / Cellular Emax (%) / Cellular hOGA; pEC50: HEK293 cells inducible for P301L mutant human Tau; for EC50 / Cellular hOGA; pEC50: 6 hours incubation, ICC O-GlcNAcylation; for EC50: read-out: Cellular hOGA, pEC50 (converted); for Cellular Emax (%) / Emax: maximum defined by Thiamet G at 200 uM; for Emax: HEK293, HEK293 cells inducible for P301L mutant human Tau
T2 construct: endogenous in cells; host or cells: HEK293 cells inducible for P301L mutant human Tau (isoform 2N4R)
T2 sequence (O60502 1-916): T1 sequence (O60502 1-916)
Experimental: HEK293 cells inducible for P301L mutant human Tau (isoform 2N4R) were established at Janssen. Thiamet-G was used for both plate validation (high control) and as reference compound (reference EC50 assay validation). OGA inhibition is evaluated through the immunocytochemical (ICC) detection of O-GlcNAcylated proteins by the use of a monoclonal antibody (CTD110.6; Cell Signaling, #9875) detecting O-GlcNAcylated residues as previously described (Dorfmueller et al. 2010 Chemistry & biology, 17:1250). Inhibition of OGA will result in an increase of O-GlcNAcylated protein levels resulting in an increased signal in the experiment. Cell nuclei are stained with Hoechst to give a cell culture quality control and a rough estimate of immediate compounds toxicity, if any. ICC pictures are imaged with a Perkin Elmer Opera Phenix plate microscope and quantified with the provided software Perkin Elmer Harmony 4.1.
Cells were propagated in DMEM high Glucose (Sigma, #D5796) following standard procedures. 2 days before the cell assay cells are split, counted and seeded in Poly-D-Lysine (PDL) coated 96-wells (Greiner, #655946) plate at a cell density of 12,000 cells per cm^2 (4,000 cells per well) in 100 μl of Assay Medium (Low Glucose medium is used to reduce basal levels of GlcNAcylation) (Park et al. 2014 The Journal of biological chemistry 289:13519). At the day of compound test medium from assay plates was removed and replenished with 90 μl of fresh Assay Medium. 10 μl of compounds at a 10 fold final concentration were added to the wells. Plates were centrifuged shortly before incubation in the cell incubator for 6 hours. DMSO concentration was set to 0.2%. Medium is discarded by applying vacuum. For staining of cells medium was removed and cells washed once with 100 μl D-PBS (Sigma, #D8537). From next step onwards unless other stated assay volume was always 50 μl and incubation was performed without agitation and at room temperature. Cells were fixed in 50 μl of a 4% paraformaldehyde (PFA, Alpha aesar, #043368) PBS solution for 15 minutes at room temperature. […] Before analysis samples were washed 2 times manually for 5 minutes in ICC base buffer.
Imaging is performed using Perkin Elmer Phenix Opera using a water 20× objective and recording 9 fields per well. Intensity readout at 488 nm is used as a measure of O-GlcNAcylation level of total proteins in wells. To assess potential toxicity of compounds nuclei were counted using the Hoechst staining. IC50-values are calculated using parametric non-linear regression model fitting. As a maximum inhibition Thiamet G at a 200 uM concentration is present on each plate. In addition, a concentration response of Thiamet G is calculated on each plate.

| Structure (SMILES) | IC50 [1] | Enzymatic Emax (%) [1] | EC50 (OGA) | Cellular Emax (%) (OGA) | Emax [1] | Emax (OGA) | Cellular hOGA; pEC50 (OGA) |
| --- | --- | --- | --- | --- | --- | --- | --- |
| Cc1cc(C[C@H]2CN(C(C)c3ccc4c(n3)OCCO4)C[C@@H]2C)cc(C)n1 (mixture of isomers) [Product 60] | 79.4 nM |  | > 1000 nM |  | 99% | 44% |  |
| Cc1cc(O[C@@H]2CCN(C(C)c3nc4c(cc3F)OCCO4)C2)cc(C)n1 (stereo partly shown) [Product 38] | 20 nM |  | 316 nM |  | 98% | 69% |  |
| Cc1cc(O[C@@H]2CCN(C(C)c3ccc4c(n3)OCCO4)C2)cc(C)n1 (mixture of isomers) [Product 73] | 79.4 nM |  | > 1000 nM |  | 99% | 33% |  |
| Cc1cc(OC[C@]2(C)CCN([C@H](C)c3ccc4c(n3)OCCO4)C2)cc(C)n1 (single isomer, unassigned) [Product 103] | > 10000 nM | 29% |  | −5% |  |  | <6 |
| Cc1cc(O[C@@H]2CCN(C(C)c3ccc4c(n3)OCCO4)C2)cc(C)n1 (single isomer, unassigned) [Product 75] | 39.8 nM | 99% |  | 34% |  |  | <6 |
| COc1cc(C[C@H]2CCN(C(C)c3ccc4c(n3)OCCC4)C2)cc(C)n1 (mixture of isomers) [Product 86] | 158 nM |  | 741 nM |  | 101% | 50% |  |
| Cc1cc(O[C@@H]2CCN(C(C)c3nc4c(cc3F)CCO4)C2)cc(C)n1 (single isomer, unassigned) [Product 18] | 158 nM |  |  | 42% | 98% |  |  |
| Cc1ccc(O[C@H]2CCN(C(C)c3ccc4c(n3)OCCO4)C2)cn1 (stereo partly shown) [Product 56] | 2510 nM |  | > 1000 nM |  | 83% | 8% |  |
| Cc1ncc(O[C@@H]2CCN(C(C)c3nc4c(cc3F)OCCO4)C2)nc1C (stereo partly shown) [Product 126] | 100 nM |  | 501 nM |  | 94% | 73% |  |
| Cc1ccc(O[C@H]2CCN(C(C)c3nc4c(cc3F)OCCO4)C2)cn1 (stereo partly shown) [Product 57] | 316 nM |  | > 1000 nM |  | 96% | 33% |  |
| Cc1cc(O[C@H]2CCN(C(C)c3ccc4c(n3)OCCO4)C2)cc(C)n1 (single isomer, unassigned) [Product 72] | > 10000 nM | 21% |  | −8% |  |  | <6 |
| Cc1cc(O[C@@H]2CCN(C(C)c3nc4c(cc3F)CCO4)C2)cc(C)n1 (single isomer, unassigned) [Product 19] | 1.58 nM | 97% | 18.6 nM | 94% |  |  |  |
| CC(c1nc2c(cc1F)OCCO2)N1CC[C@@H](Oc2ccc(C#N)nn2)C1 (stereo partly shown) [Product 53] | 63.1 nM |  | > 1000 nM |  | 93% | 43% |  |
| Cc1cc(OC[C@]2(C)CCN([C@H](C)c3ccc4c(n3)OCCO4)C2)cc(C)n1 (single isomer, unassigned) [Product 100] | 2000 nM | 87% | > 1000 nM | −5% |  |  |  |

Next, values leading:

| IC50 [1] | Enzymatic Emax (%) [1] | EC50 (OGA) | Cellular Emax (%) (OGA) | Emax [1] | Emax (OGA) | Cellular hOGA; pEC50 (OGA) | Structure (SMILES) |
| --- | --- | --- | --- | --- | --- | --- | --- |
| 25.1 nM | 102% | 200 nM | 83% |  |  |  | COc1cc(C[C@H]2CCN(C(C)c3cc4c(cc3F)OCCO4)C2)cc(C)n1 (single isomer, unassigned) [Product 11] |
| 63.1 nM |  | 631 nM | 51% | 100% |  |  | Cc1cc(C[C@@H]2CCN([C@H](C)c3ccc4c(n3)OCCO4)C2)cc(C)n1 (single isomer, unassigned) [Product 104] |
| 200 nM | 99% |  | 15% |  |  | <6 | Cc1cc(C[C@@H]2CCN(C(C)c3cnc4c(c3)OCCO4)C2)cc(C)n1 (single isomer, unassigned) [Product 36] |
| 79.4 nM |  |  | 47% | 100% |  |  | COc1cc(C[C@@H]2CCN([C@H](C)c3ccc4c(n3)OCCO4)C2)cc(C)n1 (single isomer, unassigned) [Product 106] |
| 398 nM |  | > 1000 nM | 8% | 96% |  |  | Cc1cc(C[C@@H]2CCN(C(C)c3nc4c(cc3F)OCCO4)C2)cc(C)n1 (single isomer, unassigned) [Product 51] |
| 5.01 nM |  | 31.6 nM |  | 102% | 89% |  | COc1cc(C[C@H]2CCN(C(C)c3nc4c(cc3F)CCO4)C2)cc(C)n1 (mixture of isomers) [Product 83] |
| 1580 nM |  | > 1000 nM | −5% | 88% |  |  | COc1cc(C[C@H]2CCN(C(C)c3cc4c(cc3F)OCCO4)C2)cc(C)n1 (single isomer, unassigned) [Product 10] |
| 158 nM |  | > 1000 nM |  | 97% | 20% |  | Cc1cc(C[C@@H]2CCN(C(C)c3cnc4c(c3)OCCO4)C2)cc(C)n1 (mixture of isomers) [Product 116] |
| 15.8 nM |  | 316 nM |  | 99% | 60% |  | Cc1cc(C[C@@H]2CCN(C(C)c3cc4c(cc3F)NCCO4)C2)cc(C)n1 (mixture of isomers) [Product 117] |
| 5.01 nM |  | 100 nM |  | 101% | 72% |  | Cc1cc(C[C@@H]2CCN([C@@H](C)c3cc4c(cc3F)OCCO4)C2)cc(C)n1 [Product 45] |
| 126 nM |  | 794 nM |  | 101% | 58% |  | COc1cc(C[C@H]2CCN(C(C)c3ccc4c(c3)OCC4)C2)cc(C)n1 (stereo partly shown) [Product 8] |
| 12.6 nM |  | 126 nM |  | 101% | 90% |  | COc1cc(C[C@@H]2CCN(C(C)c3nc4c(cc3F)OCCO4)C2)cc(C)n1 (mixture of isomers) [Product 90] |
| 20 nM |  | 126 nM |  | 102% | 89% |  | COc1cc(C[C@H]2CCN(C(C)c3nc4c(cc3F)OCCO4)C2)cc(C)n1 (stereo partly shown) [Product 16] |
